{"source": "patent US11286249B2", "about": "“Pyrrolidine compounds” (Eli Lilly and Company, priority 2019, dated 2022)", "key": {"plasma Lp(a)": {"tested_on": "plasma Lp(a)", "experiment": "In vivo Lp(a) inhibition in mice", "settings": "for Lp(a) inhibition (%) / Lp(a) inhibition (% at 30 mpk): mean ± SEM; for Lp(a) inhibition (% at 30 mpk): 30 mpk oral twice a day; for Lp(a) inhibition (% at 30 mpk) / ED50: day 3 at 8 h post morning oral dose; for ED50: effective dose for 50% Lp(a) inhibition, oral, twice a day, ED50 ± standard error", "experimental": "The ability of compounds to reduce steady-state Lp(a) level in vivo is assessed in a transgenic mouse model capable of producing humanized Lp(a) particles. In vivo effects of Lp(a) disruptor compounds are tested in 7 to 17-month-old female double transgenic mice expressing human apoB-100 and human apo(a) containing 17 Kringle repeats: B6.SJL-Tg(APOB)1102Sgy Tg(Alb-LPA)32Arte. Mice are housed with standard light cycle (12 hrs. light/12 hrs. dark), at RT 72±8° F. and relative humidity of 30˜70%, and with free access to water and normal chow diet (Harlan Tecklad diet 2014). Mice are randomized to treatment groups (n=5/group) 3 to 5 days before the study by body weight and baseline plasma Lp(a) concentration using BRAT (Block Randomized Allocation Tool) for the study. Mice are orally dosed (or subcutaneously where noted) with vehicle (oral dose vehicle: 10 mL/kg, 1% HEC, 0.25% Tween80, 0.01% Antifoam; subcutaneous dose vehicle: 5 mL/kg saline) or test compound at various dose levels twice a day (6:30 am and […]) for 5 days. Blood is collected in heparin-coated capillary tubes via tail bleed. Twenty μL of each blood sample is transferred to a DBS card (Whatman Cat #: WB12 9243) for drug exposure analysis. The remaining blood samples are centrifuged to separate plasma. Lp(a) concentration in plasma is measured using a sandwich ELISA as described for the in vitro Lp(a) assembly assay. The % inhibition for each dose group is determined with the mean the Lp(a) level of the vehicle control group set to 0% inhibition. […] ED50 (effective dose for 50% Lp(a) inhibition) calculations as determined by Threshold Minimum Effective Dose analysis."}, "[1]": {"target": "assembly of Lp(a) from Apo(a) and the LDL particle (Homo sapiens, UniProt P08519)", "sequence (P08519 20-2040 limits assumed)": "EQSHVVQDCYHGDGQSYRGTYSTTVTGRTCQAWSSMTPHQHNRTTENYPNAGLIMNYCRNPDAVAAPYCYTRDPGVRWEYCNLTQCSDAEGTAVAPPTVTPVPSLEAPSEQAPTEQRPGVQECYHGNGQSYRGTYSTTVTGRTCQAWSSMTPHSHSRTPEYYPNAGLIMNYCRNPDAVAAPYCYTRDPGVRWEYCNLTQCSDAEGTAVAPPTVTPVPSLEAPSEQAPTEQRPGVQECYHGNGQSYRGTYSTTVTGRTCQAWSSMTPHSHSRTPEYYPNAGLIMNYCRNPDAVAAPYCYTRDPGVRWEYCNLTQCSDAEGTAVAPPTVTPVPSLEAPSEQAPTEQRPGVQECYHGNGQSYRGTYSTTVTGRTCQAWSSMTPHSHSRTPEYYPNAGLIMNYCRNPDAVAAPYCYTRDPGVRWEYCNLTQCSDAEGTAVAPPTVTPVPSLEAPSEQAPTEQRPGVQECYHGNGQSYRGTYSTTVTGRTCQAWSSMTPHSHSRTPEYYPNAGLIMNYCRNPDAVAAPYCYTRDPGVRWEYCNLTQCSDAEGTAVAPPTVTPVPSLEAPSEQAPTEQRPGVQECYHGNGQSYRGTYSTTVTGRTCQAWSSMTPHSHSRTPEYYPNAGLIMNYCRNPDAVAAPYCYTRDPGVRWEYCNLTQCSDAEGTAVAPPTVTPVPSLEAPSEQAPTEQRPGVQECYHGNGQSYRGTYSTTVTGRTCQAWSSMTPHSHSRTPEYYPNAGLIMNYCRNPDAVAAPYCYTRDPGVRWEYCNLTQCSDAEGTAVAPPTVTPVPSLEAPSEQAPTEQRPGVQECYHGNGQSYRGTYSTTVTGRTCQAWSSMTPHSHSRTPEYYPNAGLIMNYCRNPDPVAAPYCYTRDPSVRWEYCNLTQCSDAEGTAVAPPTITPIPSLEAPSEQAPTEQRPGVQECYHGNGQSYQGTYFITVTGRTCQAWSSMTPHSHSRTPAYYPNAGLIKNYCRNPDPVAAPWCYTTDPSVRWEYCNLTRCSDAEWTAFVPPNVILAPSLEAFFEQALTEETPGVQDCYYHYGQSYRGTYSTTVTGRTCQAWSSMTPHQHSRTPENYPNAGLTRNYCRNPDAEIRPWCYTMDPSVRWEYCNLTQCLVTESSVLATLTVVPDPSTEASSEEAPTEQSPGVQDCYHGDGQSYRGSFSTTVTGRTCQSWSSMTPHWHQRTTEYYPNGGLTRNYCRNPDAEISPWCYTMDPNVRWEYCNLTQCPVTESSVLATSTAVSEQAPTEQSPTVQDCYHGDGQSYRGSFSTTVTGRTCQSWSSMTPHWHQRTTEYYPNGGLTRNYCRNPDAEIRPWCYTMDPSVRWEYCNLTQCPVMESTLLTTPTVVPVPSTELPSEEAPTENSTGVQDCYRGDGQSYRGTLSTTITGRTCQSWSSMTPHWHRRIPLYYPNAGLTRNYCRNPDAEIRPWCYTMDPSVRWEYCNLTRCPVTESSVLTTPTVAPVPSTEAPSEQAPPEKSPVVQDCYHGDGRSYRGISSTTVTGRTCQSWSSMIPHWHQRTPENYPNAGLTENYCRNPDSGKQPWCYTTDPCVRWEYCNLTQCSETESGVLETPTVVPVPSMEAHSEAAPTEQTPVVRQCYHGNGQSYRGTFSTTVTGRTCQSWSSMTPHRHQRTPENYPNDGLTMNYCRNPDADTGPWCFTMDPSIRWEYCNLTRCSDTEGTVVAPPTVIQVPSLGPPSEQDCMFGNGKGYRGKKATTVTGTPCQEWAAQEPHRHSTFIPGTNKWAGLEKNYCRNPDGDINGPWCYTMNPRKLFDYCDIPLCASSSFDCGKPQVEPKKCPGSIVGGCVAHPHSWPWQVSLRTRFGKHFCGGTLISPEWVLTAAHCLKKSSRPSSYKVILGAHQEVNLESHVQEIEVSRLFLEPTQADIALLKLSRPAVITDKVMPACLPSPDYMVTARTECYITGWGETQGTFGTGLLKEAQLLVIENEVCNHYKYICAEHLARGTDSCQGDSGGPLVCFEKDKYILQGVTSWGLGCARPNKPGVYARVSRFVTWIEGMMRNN", "experiment": "In vitro Lp(a) assembly assay (cell-free, HepG2 and HEK293 conditioned media, sandwich ELISA)", "type": "biochemical", "settings": "inhibition of Lp(a) formation, 37° C. for 2 hrs; geometric mean ± SEM (n)", "experimental": "The ability of compounds to inhibit the formation of Lp(a) particles in vitro is assessed by a cell-free assembly assay. Conditioned media (DMEM supplemented with 10% FBS, 20 mM HEPES, and 1× penicillin/streptomycin) is collected from confluent wild-type HepG2 cells (a source of endogenously expressed ApoB) and from a HEK293 stable cell line expressing human Apo(a) protein containing 17 Kringle repeats (selected on 1 mg/ml geneticin) after 24 hours of culture at 37° C. and 5% CO2. An in vitro assembly assay is conducted by combining equal parts of HepG2 and HEK293 conditioned media with the test compounds added in dilution series (final concentration 0.01˜100 nM). The reaction is incubated at 37° C. for 2 hrs and then stopped with the addition of 6-aminocaproic acid (EACA) to a final concentration of 150 mM. Lp(a) is detected using a sandwich ELISA with an anti-Lp(a) capture antibody and an HRP-conjugated anti-ApoB detection antibody. The ELISA is developed using TMB, stopped using 1 N sulfuric acid, and the signal is read at 450 nm on a Molecular Devices plate reader."}, "human Apo(a) protein": {"target": "human Apo(a) protein (Homo sapiens, UniProt P08519)", "sequence (P08519 20-2040 limits assumed)": "as above", "experiment": "In vitro Apo(a) binding assay (competitive SPA radioligand binding)", "settings": "human Apo(a) with 17 Kringle repeats; geometric mean ± SEM (n)", "experimental": "The in vitro binding affinity of compounds to the intended target human Apo(a) protein is tested in a competitive binding assay. Human Apo(a) protein containing 17 Kringle repeats is affinity purified from conditioned media of transiently transfected HEK-293F cells. All reagents are prepared in assay buffer containing 50 mM Tris-HCl pH 7.4, 0.1% BSA. The binding assay is conducted by adding to each well of a clear-bottom plate […] of (1) test compound in dilution series (final concentration […]), (2) Apo(a) protein (6 ng/well), (3) re-suspended Wheat Germ Agglutinin Polyvinyltoluene SPA beads (20 mg/ml), and (4) the radioligand, tritium-labeled (2S)-3-[3-[2-oxo-3-[3-(tritritiomethoxy)phenyl]imidazolidin-1-yl]phenyl]-2-[(3R)-pyrrolidin-3-yl]propanoic acid; hydrochloride (final concentration 0.52 nM). Plates are incubated for 60 minutes at RT and counted on TRILUX LSC. […] Data are analyzed by fitting to a standard single site binding model and the IC50 for the Example test compound is determined. […] Inhibition of the assembly of the LDL particle with apo(a) through binding to the Apo(a) protein supports a reduction in Lp(a) levels."}, "[2]": {"settings": "30 mg/kg oral twice a day, day 3 at 4 h post morning dose"}}, "note": "Counter-ions that a name gives are not always drawn.", "data": [{"compound": "O=C(O)[C@@H](Cc1cccc(Sc2cccc(C[C@H](C(=O)O)[C@H]3CCNC3)c2)c1)[C@H]1CCNC1", "note": "[Example 10, (2S)-3-[3-[3-[(2S)-2-Carboxy-2-[(3R)-pyrrolidin-3-yl]ethyl]phenyl]sulfanylphenyl]-2-[(3R)-pyrrolidin-3-yl]propanoic acid; dihydrochloride]", "values": [{"measurement": "Lp(a) inhibition (%)", "setting": "plasma Lp(a); [2]", "result": "43.6 ± 4.6", "unit": "%"}, {"measurement": "IC50", "setting": "[1]", "result": "0.36 ± 0.119", "unit": "nM"}]}, {"compound": "COc1cc(F)cc(CN(Cc2cccc(C[C@H](C(=O)O)[C@H]3CCNC3)c2)Cc2cccc(C[C@H](C(=O)O)[C@H]3CCNC3)c2)c1", "note": "[Example 5, (2S)-3-[3-[[[3-[(2S)-2-Carboxy-2-[(3R)-pyrrolidin-3-yl]ethyl]phenyl]methyl-[(3-fluoro-5-methoxy-phenyl)methyl]amino]methyl]phenyl]-2-[(3R)-pyrrolidin-3-yl]propanoic acid; trihydrochloride]", "values": [{"measurement": "Lp(a) inhibition (%)", "setting": "plasma Lp(a); 3 mg/kg oral twice a day, day 3 at 4 h post morning dose", "result": "43.8 ± 4.24", "unit": "%"}, {"measurement": "IC50", "setting": "[1]", "result": "0.17 ± 0.0124", "unit": "nM"}]}, {"compound": "Cl.O=C(O)[C@@H](Cc1ccccc1)[C@H]1CCNC1", "note": "[Example 17, (2S)-3-Phenyl-2-[(3R)-pyrrolidin-3-yl]propanoic acid; hydrochloride]", "values": [{"measurement": "Lp(a) inhibition (% at 30 mpk)", "setting": "plasma Lp(a)", "result": "60 ± 3.46", "unit": "%"}, {"measurement": "ED50", "setting": "plasma Lp(a)", "result": "20.6 ± 1.79", "unit": "mg/kg"}]}, {"compound": "O=C(O)[C@@H](Cc1cccc([S+]([O-])c2cccc(C[C@H](C(=O)O)[C@H]3CCNC3)c2)c1)[C@H]1CCNC1", "note": "[Example 11, (2S)-3-[3-[3-[(2S)-2-Carboxy-2-[(3R)-pyrrolidin-3-yl]ethyl]phenyl]sulfinylphenyl]-2-[(3R)-pyrrolidin-3-yl]propanoic acid; dihydrochloride]", "values": [{"measurement": "IC50", "setting": "[1]", "result": "0.396 ± 0.241", "unit": "nM"}]}, {"compound": "O=C(O)[C@@H](Cc1cccc(NS(=O)(=O)Nc2cccc(C[C@H](C(=O)O)[C@H]3CCNC3)c2)c1)[C@H]1CCNC1", "note": "[Example 16, (2S,2′S)-3,3′-[Sulfonylbis(azanediyl-3,1-phenylene)]bis{2-[(3R)-pyrrolidin-3-yl]propanoic acid}; dihydrochloride]", "values": [{"measurement": "IC50", "setting": "[1]", "result": "0.563 ± 0.119", "unit": "nM"}]}, {"compound": "O=C(O)[C@@H](Cc1cccc(COc2cccc(C[C@H](C(=O)O)[C@H]3CCNC3)c2)c1)[C@H]1CCNC1", "note": "[Example 9, (2S)-3-[3-[[3-[(2S)-2-Carboxy-2-[(3R)-pyrrolidin-3-yl]ethyl]phenoxy]methyl]phenyl]-2-[(3R)-pyrrolidin-3-yl]propanoic acid; dihydrochloride]", "values": [{"measurement": "Lp(a) inhibition (%)", "setting": "plasma Lp(a); [2]", "result": "56.5 ± 2.77", "unit": "%"}, {"measurement": "IC50", "setting": "[1]", "result": "0.359 ± 0.0292", "unit": "nM"}]}, {"compound": "O=C(O)[C@@H](Cc1cccc(OCCOc2cccc(C[C@H](C(=O)O)[C@H]3CCNC3)c2)c1)[C@H]1CCNC1", "note": "[Example 8, (2S)-3-[3-[2-[3-[(2S)-2-carboxy-2-[(3R)-pyrrolidin-3-yl]ethyl]phenoxy]ethoxy]phenyl]-2-[(3R)-pyrrolidin-3-yl]propanoic acid; dihydrochloride]", "values": [{"measurement": "IC50", "setting": "[1]", "result": "0.288 ± 0.19", "unit": "nM"}]}, {"compound": "O=C(O)[C@@H](Cc1cccc(Oc2cccc(C[C@H](C(=O)O)[C@H]3CCNC3)c2)c1)[C@H]1CCNC1", "note": "[Example 7, (2S)-3-[3-[3-[(2S)-2-carboxy-2-[(3R)-pyrrolidin-3-yl]ethyl]phenoxy]phenyl]-2-[(3R)-pyrrolidin-3-yl]propanoicacid; dihydrochloride]", "values": [{"measurement": "Lp(a) inhibition (%)", "setting": "plasma Lp(a); 30 mg/kg subcutaneous dosing twice a day, day 3 at 4 h post morning dose", "result": "44.6 ± 5.0", "unit": "%"}, {"measurement": "IC50", "setting": "[1]", "result": "0.372 ± 0.0464", "unit": "nM"}]}, {"compound": "CC(Cc1cccc(CN(Cc2cccc(CC(C)(C(=O)O)[C@H]3CCNC3)c2)Cc2cccc(CC(C)(C(=O)O)[C@H]3CCNC3)c2)c1)(C(=O)O)[C@H]1CCNC1", "note": "(stereo partly drawn) [Example 6, 3-[3-[[bis[[3-[2-carboxy-2-[(3R)-pyrrolidin-3-yl]propyl]phenyl]methyl]amino]methyl]phenyl]-2-methyl-2-[(3R)-pyrrolidin-3-yl]propanoic acid; tetrahydrochloride]", "values": [{"measurement": "IC50", "setting": "human Apo(a) protein", "result": "< 0.314", "unit": "nM"}, {"measurement": "IC50", "setting": "[1]", "result": "0.108 ± 0.0149", "unit": "nM"}]}, {"compound": "O=C(O)[C@@H](Cc1cccc(CNc2cccc(C[C@H](C(=O)O)[C@H]3CCNC3)c2)c1)[C@H]1CCNC1", "note": "[Example 13, (2S)-3-[3-[[3-[(2S)-2-Carboxy-2-[(3R)-pyrrolidin-3-yl]ethyl]anilino]methyl]phenyl]-2-[(3R)-pyrrolidin-3-yl]propanoicacid; trihydrochloride]", "values": [{"measurement": "IC50", "setting": "[1]", "result": "2.39 ± 0.61", "unit": "nM"}]}, {"compound": "O=C(O)[C@@H](Cc1cccc(CNCc2cccc(C[C@H](C(=O)O)[C@H]3CCNC3)c2)c1)[C@H]1CCNC1", "note": "[Example 3, (2S)-3-[3-[[[3-[(2S)-2-Carboxy-2-[(3R)-pyrrolidin-3-yl]ethyl]phenyl]methylamino]methyl]phenyl]-2-[(3R)-pyrrolidin-3-yl]propanoic acid; trihydrochloride]", "values": [{"measurement": "IC50", "setting": "human Apo(a) protein", "result": "2.13 ± 0.159", "unit": "nM"}, {"measurement": "IC50", "setting": "[1]", "result": "0.934 ± 0.306", "unit": "nM"}]}, {"compound": "O=C(O)[C@@H](Cc1cccc(Nc2cccc(C[C@H](C(=O)O)[C@H]3CCNC3)c2)c1)[C@H]1CCNC1", "note": "[Example 14, (2S)-3-[3-[3-[(2S)-2-Carboxy-2-[(3R)-pyrrolidin-3-yl]ethyl]anilino]phenyl]-2-[(3R)-pyrrolidin-3-yl]propanoic acid; dihydrochloride]", "values": [{"measurement": "Lp(a) inhibition (% at 30 mpk)", "setting": "plasma Lp(a)", "result": "72 ± 2.23", "unit": "%"}, {"measurement": "ED50", "setting": "plasma Lp(a)", "result": "14.6 ± 2.48", "unit": "mg/kg"}, {"measurement": "IC50", "setting": "human Apo(a) protein", "result": "< 0.314", "unit": "nM"}, {"measurement": "IC50", "setting": "[1]", "result": "0.348 ± 0.0984", "unit": "nM"}]}, {"compound": "O=C(O)[C@@H](Cc1cccc(CN(Cc2cccc(C[C@H](C(=O)O)[C@H]3CCNC3)c2)Cc2cccc(C[C@H](C(=O)O)[C@H]3CCNC3)c2)c1)[C@H]1CCNC1", "note": "[Example 1, (2S)-3-[3-[[Bis[[3-[(2S)-2-carboxy-2-[(3R)-pyrrolidin-3-yl]ethyl]phenyl]methyl]amino]methyl]phenyl]-2-[(3R)-pyrrolidin-3-yl]propanoic acid; tetrahydrochloride]", "values": [{"measurement": "Lp(a) inhibition (% at 30 mpk)", "setting": "plasma Lp(a)", "result": "91 ± 0.73", "unit": "%"}, {"measurement": "ED50", "setting": "plasma Lp(a)", "result": "3.3 ± 0.53", "unit": "mg/kg"}, {"measurement": "IC50", "setting": "human Apo(a) protein", "result": "< 0.314", "unit": "nM"}, {"measurement": "IC50", "setting": "[1]", "result": "0.0963 ± 0.0233", "unit": "nM"}]}, {"compound": "O=C(O)[C@@H](Cc1cccc(S(=O)(=O)c2cccc(C[C@H](C(=O)O)[C@H]3CCNC3)c2)c1)[C@H]1CCNC1", "note": "[Example 12, (2S)-3-[3-[3-[(2S)-2-Carboxy-2-[(3R)-pyrrolidin-3-yl]ethyl]phenyl]sulfonylphenyl]-2-[(3R)-pyrrolidin-3-yl]propanoicacid; dihydrochloride]", "values": [{"measurement": "Lp(a) inhibition (%)", "setting": "plasma Lp(a); 30 mg/kg oral twice a day, day 3, samples taken at 8 h post oral dosing", "result": "50 ± 3.82^3%"}, {"measurement": "IC50", "setting": "[1]", "result": "0.235 ± 0.0509", "unit": "nM"}]}, {"compound": "Cl.O=C(O)[C@H](Cc1ccccc1)[C@@H]1CCNC1", "note": "[Example 18, (2R)-3-Phenyl-2-[(3S)-pyrrolidin-3-yl]propanoic acid; hydrochloride]", "values": [{"measurement": "Lp(a) inhibition (% at 30 mpk)", "setting": "plasma Lp(a)", "result": "68 ± 1.82", "unit": "%"}, {"measurement": "ED50", "setting": "plasma Lp(a)", "result": "7.6 ± 2.43", "unit": "mg/kg"}]}, {"compound": "CN1CC[C@H]([C@H](Cc2cccc(Nc3cccc(C[C@H](C(=O)O)[C@H]4CCN(C)C4)c3)c2)C(=O)O)C1", "note": "[Example 15, (2S)-3-[3-[3-[(2S)-2-carboxy-2-[(3R)-1-methylpyrrolidin-3-yl]ethyl]anilino]phenyl]-2-[(3R)-1-methylpyrrolidin-3-yl]propanoic acid; dihydrochloride]", "values": [{"measurement": "IC50", "setting": "[1]", "result": "54.6 ± 9.15", "unit": "nM"}]}]}
